Measurements taken from patent publication US20040242590A1, “Pharmaceutical composition comprising gamma-butyrobetaine” (priority 2001, published 2004).
Entries after “also recorded” stand apart in the source; their conditions may differ. Structures can show the parent of a compound that is named as a salt.

What was measured:
[1] = tested on: intracorporeal pressure (corpus cavernosum penis); assay: intracorporeal pressure in narcotized rats, intracavernous injection; format: in vivo; conditions: for Increase of intracorporeal pressure, % of papaverine: in % of the increase produced by papaverine
Description: (§1) The influence of the experimental substances on the penile erection was evaluated using the experimental model, where changes of intracorporeal pressure was measured (Chen K K et al. J Urol, 1992;147:1124). Rats were anesthetized by sodium pentobarbital (50 mg/kg i.p. plus additionally 8 mg/kg/h i.v.). Body temperature was kept at 37-37.4° C. (rectal control) by heating lamp. Endotracheal tube was inserted to assure adequate respiration under anesthesia. Number 25 needle filled with heparinized saline was connected to pressure transducer and introduced into corpus cavernosum penis. Intracavernous pressure and II standard lead on an ECG was continuously recorded on physiograph DMP-4B (Narco Bio-Systems, USA). In some experiments arterial pressure in common carotid artery was also recorded. The effects of experimental substances were determined both at intravenous and intracavernous introduction route. For the intracorporeal injection the substances were dissolved in isotonic (0.9%) NaCl solution and the dose introduced in 0.05 ml of liquid. […] Gamma-butyrobetaine (GBB) was introduced separately and in combination with THP or phosphodiesterase inhibitor, in particular, sildenafil. Gamma-butyrobetaine (GBB) (intracavernous injection 0.02-0.1 mg per rat, usually 0.05 mg per rat; intravenously 2.0 mg/kg) and THP (intracavernous injection 0.2 mg per rat; intravenously 10.0 mg/kg) were introduced separately and as combination (GBB+THP).

[2] = subc.; cited from earlier work
[3] = tested on: copulating activity of male rats; assay: rat copulating behaviour in state of physiological depression; format: in vivo, Wistar rats
Description: The pharmacological effects of GBB, THP and their combination on the sexual activity of mammals was investigated by a model based on rat copulating behaviour in state of physiological depression.
Experiments were conducted on adult Wistar rats of both sexes with initial body weight of 300-330 g. During the experiment, the animals were kept in standard crates in groups of 6. The feed was a standartized diet R70 (LABFOR, Lactamin AB, Sweden). The room temperature was kept at 21-23° C., relative humidity at 65±10%, 12 hour light/darkness cycle. During one week before the experiment it was established that the average water consumption by the rats was 8.2-12% (average —10%) of their body mass.
Male rats were distributed randomly into 4 groups, each of 6 animals, and supplied for 6 weeks with the following aqueous solutions:
Group 1 (Control Group)—ding water without any additives;
Group 2 (GBB Group)—drinking water was supplemented by gamma-butyrobetaine (0.015% by weight), resulting in the average daily gamma-butyrobetaine intake of 15 mg/kg;
Group 3 (THP Group)—drinking water was supplemented by THP (0.06% by weight), resulting in the average daily THP intake of 60 mg/kg;
Group 4 (GBB+THP Group)—drinking water was supplemented by THP (0.06% by weight) and gamma-butyrobetaine (0.015% by weight), resulting in the average daily […]) intake of 60 mg/kg and gamma-butyrobetaine intake of 15 mg/kg.
The copulating activity of male rats was tested four times: after one week, after four weeks, after six weeks and 48-50 hours after the discontinuation of substance intake, when all animals were receiving drinking water without additives.
The tests were conducted between 10 and 12 a.m. 6 male rats of one group were placed into a clean, well illuminated crate (box). After 5 min. adaptation period 2 female rats were placed into the box for 10 minutes. For each male rat the following data were collected:
1) copulating intensity (number of copulations during the exposition period);
3) postcoital period—the behaviour of male rats during 5 min. period after the removal of females. The postcoital behaviour was characterized by following marks: 0—the animal is passive, lays down; 1—the rat is quiet; grooming; 2—the rat is mobile, rutting; 3—the animal is active, aggressive.
The female rats used were in the estrus phase, induced by i.p. injection of 0.2 ml 0.1% estradiol dipropionate 48 h before the test.

[4] = tested on: intracavernous pressure (corpus cavernosum penis); assay: intracavernous pressure in narcotized rats, intravenous injection; format: in vivo; conditions: for effect on intracorporeal pressure (in words): intravenous; for Duration of effect / Changes of intracavernous pressure / Reflectory increase of intracavernous pressure: intravenously: GBB 2.0 mg/kg, THP 10.0 mg/kg, sildenafil 3.0 mg/kg, papaverine 2.0 mg/kg
Description: as §1, with “Adult male rats, weighing 300-410 g were used. The influence” for “The influence”, “combination (GBB+THP). […] Since the intracavernous injection is not popular due to inconvenience to patient, intravenous route was selected for further evaluation.” for “combination (GBB+THP).”

[5] = 1 week of therapy, drinking water, GBB 15 mg/kg daily, THP 60 mg/kg daily
[6] = 1 week of therapy, drinking water, GBB 15 mg/kg daily, THP 60 mg/kg daily, 10 min exposition
[7] = 4 weeks of therapy, behaviour marks 0-3
[8] = 4 weeks of therapy, drinking water, GBB 15 mg/kg daily, THP 60 mg/kg daily
[9] = 6 weeks of therapy, behaviour marks 0-3
[10] = 6 weeks of therapy, drinking water, GBB 15 mg/kg daily, THP 60 mg/kg daily
[11] = Post-therapy (48-50 hours after discontinuation)
[12] = Post-therapy (48-50 hours after discontinuation), behaviour marks 0-3

| Compound | effect on intracorporeal pressure (in words) [1] | delay time before attempts of mounting [3, 5] [min] | number of copulations [3, 6] | rat post-coital agitation period [3, 7] | number of copulations [3, 8] | number of mounting attempts of male rats [3, 8] | rat post-coital agitation period [3, 9] | delay time before attempts of mounting [3, 10] [min] | number of mounting attempts of male rats [3, 10] | delay time before attempts of mounting [3, 11] [min] | number of copulations [3, 11] | number of mounting attempts of male rats [3, 11] | rat post-coital agitation period [3, 12] | effect on intracorporeal pressure (in words) [4] | Duration of effect [4] [min] | Increase of intracorporeal pressure, % of papaverine ([1]; dose 0.2 mg per rat) [%] | Changes of intracavernous pressure [4] [mm Hg] | Reflectory increase of intracavernous pressure [4] [mm Hg] | further results |
| --- | --- | --- | --- | --- | --- | --- | --- | --- | --- | --- | --- | --- | --- | --- | --- | --- | --- | --- | --- |
| C[N+](C)(C)CCCC(=O)[O-] [GBB, gamma-butyrobetaine] | pronounced dose-dependent, but relatively short-termed increase; also recorded: inferior to that of papaverine | 3.7 ± 0.9 | 0.8 ± 0.3 | 1.2 ± 0.3 | 1.3 ± 0.5 | 3.7 ± 0.7 | 1.5 ± 0.4 | 2.8 ± 0.9 | 3.3 ± 0.6 | 2.6 ± 0.6 | 0.7 ± 0.2 | 3.2 ± 0.5 | 1.2 ± 0.3 | highly efficient | 2.8 ± 0.7 | – | – | – | Increase of intracorporeal pressure, % of papaverine ([1]; dose 0.02 mg per rat): 30.6%; Increase of intracorporeal pressure ([1]; dose 0.05 mg per rat): 31.5 ± 5.1 mmHg; Increase of intracorporeal pressure, % of papaverine ([1]; dose 0.05 mg per rat): 85.7%; LD50 [2]: 7000 mg/kg |
| COc1ccc(Cc2nccc3cc(OC)c(OC)cc23)cc1OC [Papaverine, Papaverine hydrochloride] | – | – | – | – | – | – | – | – | – | – | – | – | – | little effect | 0.9 ± 0.9 | 100 | 0.6 ± 0.6 | 0.3 ± 0.3 | Duration of effect ([1]; dose 0.2 mg per rat): 8.8 ± 1.4 min; Increase of intracorporeal pressure ([1]; dose 0.2 mg per rat): 36.75 ± 4.1 mmHg |
| CCCc1nn(C)c2c(=O)[nH]c(-c3cc(S(=O)(=O)N4CCN(C)CC4)ccc3OCC)nc12 [Sildenafil, sildenafil] | – | – | – | – | – | – | – | – | – | – | – | – | – | – | 2.5 ± 1.1 | – | – | – | Duration of effect ([1]; dose 0.15 mg per rat): 7.5 ± 2.7 min; Increase of intracorporeal pressure ([1]; dose 0.15 mg per rat): 38.5 ± 7.3 mmHg; Increase of intracorporeal pressure, % of papaverine ([1]; dose 0.15 mg per rat): 104.8% |
| C[N+](C)(C)NCCC(=O)[O-] [THP, 3-(2,2,2-trimethylhydrazinium)propionate] | did not produce significant changes | 5.3 ± 1.0 | 0.5 ± 0.3 | 1.4 ± 0.5 | 1.2 ± 0.4 | 3.0 ± 0.7 | 1.8 ± 0.3 | 2.3 ± 0.5 | 3.7 ± 0.5 | 2.4 ± 0.7 | 1.0 ± 0.3 | 3.4 ± 0.7 | 1.2 ± 0.4 | little effect | 0.9 ± 0.5 | 7.3 | 1.3 ± 0.9 | 2.7 ± 1.2 | rat post-coital agitation period ([3]; 1 week of therapy, behaviour marks 0-3 during 5 min after removal of females): 1.0 ± 0.4; number of mounting attempts of male rats [3, 6]: 2.7 ± 0.6; delay time before attempts of mounting [3, 8]: 2.1 ± 0.5 min; number of copulations [3, 10]: 0.8 ± 0.3 |
